According to patent publication US11725012B2, “Imidazo[1,5-a]pyrazine derivatives as PI3K δ inhibitors” (priority 2016, dated 2023):

Experiments:
Type in all cases: biochemical
[1] = molecular target: recombinant PI3K (p110δ/p85α) (Homo sapiens, UniProt O00329); experiment: PI3Kδ ADP-Glo kinase assay; conditions: read-out: PI3Kδ Enzyme activity IC50
Method: Compounds disclosed herein were tested for inhibition of PI3Kδ kinase activity using commercial ADP-Glo™ Kinase Assay (Promega Corporation) and following the manufacture's instruction. Briefly, recombinant PI3K (p110δ/p85α) enzyme, lipid kinase substrate and a serial dilution of compounds disclosed herein were incubated for 0.5 hr at room temperature. ATP was added to initiate the kinase reaction. After incubation for 1 hr at room temperature, ADP-Glo™ reagent was added to terminate the kinase reaction and deplete the remaining ATP. After incubation for 1 hr at room temperature, kinase detection reagent was added to simultaneously convert ADP to ATP and allow the newly synthesized ATP to be measured using a luciferase/luciferin reaction. After incubation for 0.5 hr at room temperature, the luminescence generated was measured on a PHERAstar FS plate reader (BMG LABTECH), The residual enzyme activity in presence of increasing concentrations of compounds was calculated based on the luminescence. The IC50 for each compound was derived from fitting the data to the four-parameter logistic equation by Graphpad Prism software.

PI3K (p110γ) = PI3K (p110γ) (Homo sapiens, UniProt P48736); experiment: PI3Kγ ADP-Glo kinase assay; conditions: for IC50: read-out: PI3Kγ Enzyme activity IC50; for inhibition at 0.5 µM: read-out: PI3Kγ max inhibition (%) at 0.5 μM
Sequence of PI3K (p110γ) (P48736 whole entry): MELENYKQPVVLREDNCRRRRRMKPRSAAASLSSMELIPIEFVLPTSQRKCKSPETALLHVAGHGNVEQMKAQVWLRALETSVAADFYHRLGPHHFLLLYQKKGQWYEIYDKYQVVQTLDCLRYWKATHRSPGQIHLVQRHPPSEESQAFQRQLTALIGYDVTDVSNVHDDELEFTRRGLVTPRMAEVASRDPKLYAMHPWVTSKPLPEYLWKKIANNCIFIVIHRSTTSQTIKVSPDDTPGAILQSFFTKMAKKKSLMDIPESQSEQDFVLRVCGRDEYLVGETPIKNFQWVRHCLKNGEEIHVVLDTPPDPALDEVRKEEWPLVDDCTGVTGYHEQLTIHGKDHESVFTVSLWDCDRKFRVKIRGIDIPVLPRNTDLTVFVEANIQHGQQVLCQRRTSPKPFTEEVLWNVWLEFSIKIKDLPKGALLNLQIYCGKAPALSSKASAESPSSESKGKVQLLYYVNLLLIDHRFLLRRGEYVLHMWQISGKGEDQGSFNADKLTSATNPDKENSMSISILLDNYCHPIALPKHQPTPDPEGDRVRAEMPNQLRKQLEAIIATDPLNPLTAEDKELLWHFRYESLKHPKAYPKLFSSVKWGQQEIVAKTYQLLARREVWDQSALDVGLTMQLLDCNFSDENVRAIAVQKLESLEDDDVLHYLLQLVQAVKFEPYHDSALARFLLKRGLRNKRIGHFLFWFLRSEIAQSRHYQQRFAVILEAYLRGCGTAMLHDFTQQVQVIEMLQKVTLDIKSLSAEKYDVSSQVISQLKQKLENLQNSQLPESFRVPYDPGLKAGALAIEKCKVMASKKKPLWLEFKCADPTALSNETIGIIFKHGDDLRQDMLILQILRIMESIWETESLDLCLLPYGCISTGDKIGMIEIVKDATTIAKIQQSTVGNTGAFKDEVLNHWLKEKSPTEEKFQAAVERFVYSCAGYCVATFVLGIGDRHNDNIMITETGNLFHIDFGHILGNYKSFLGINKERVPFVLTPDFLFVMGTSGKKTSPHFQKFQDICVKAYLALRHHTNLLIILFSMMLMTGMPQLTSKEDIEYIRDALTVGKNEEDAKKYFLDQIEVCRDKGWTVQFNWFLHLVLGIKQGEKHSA

[2] = molecular target: recombinant PI3K (p110α/p85α) (Homo sapiens, UniProt P42336); experiment: PI3Kα ADP-Glo kinase assay; conditions: for IC50: read-out: PI3Kα Enzyme activity IC50; for inhibition at 0.5 µM: read-out: PI3Kα max inhibition (%) at 0.5 μM
Sequence of recombinant PI3K (p110α/p85α) (P42336 whole entry): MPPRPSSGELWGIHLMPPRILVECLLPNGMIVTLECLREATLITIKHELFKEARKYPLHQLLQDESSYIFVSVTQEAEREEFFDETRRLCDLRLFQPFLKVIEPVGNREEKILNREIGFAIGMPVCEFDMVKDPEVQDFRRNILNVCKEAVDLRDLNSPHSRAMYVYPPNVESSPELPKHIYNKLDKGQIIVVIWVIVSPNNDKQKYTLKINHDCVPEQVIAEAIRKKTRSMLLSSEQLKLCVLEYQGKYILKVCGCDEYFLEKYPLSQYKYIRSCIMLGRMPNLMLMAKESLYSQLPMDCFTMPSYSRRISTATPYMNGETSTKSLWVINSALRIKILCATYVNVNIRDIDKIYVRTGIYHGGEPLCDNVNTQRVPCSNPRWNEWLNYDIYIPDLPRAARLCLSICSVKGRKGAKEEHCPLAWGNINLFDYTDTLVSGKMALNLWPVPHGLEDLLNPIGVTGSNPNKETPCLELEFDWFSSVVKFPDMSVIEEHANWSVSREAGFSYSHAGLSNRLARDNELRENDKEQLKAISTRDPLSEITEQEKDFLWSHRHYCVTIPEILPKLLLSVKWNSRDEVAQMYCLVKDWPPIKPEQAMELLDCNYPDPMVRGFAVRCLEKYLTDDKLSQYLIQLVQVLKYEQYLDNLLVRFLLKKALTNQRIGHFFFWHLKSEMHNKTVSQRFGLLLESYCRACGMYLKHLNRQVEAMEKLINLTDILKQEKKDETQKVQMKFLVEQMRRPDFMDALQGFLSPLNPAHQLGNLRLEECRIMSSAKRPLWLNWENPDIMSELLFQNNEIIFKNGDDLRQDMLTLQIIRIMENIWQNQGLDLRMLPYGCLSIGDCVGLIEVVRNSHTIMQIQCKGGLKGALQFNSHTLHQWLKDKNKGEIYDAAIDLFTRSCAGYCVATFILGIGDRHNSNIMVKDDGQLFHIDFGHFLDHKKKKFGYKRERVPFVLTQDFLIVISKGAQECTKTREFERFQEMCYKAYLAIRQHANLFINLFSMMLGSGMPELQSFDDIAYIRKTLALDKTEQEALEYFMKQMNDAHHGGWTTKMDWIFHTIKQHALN
Sequence of recombinant PI3K (p110α/p85α) (P27986 whole entry partner): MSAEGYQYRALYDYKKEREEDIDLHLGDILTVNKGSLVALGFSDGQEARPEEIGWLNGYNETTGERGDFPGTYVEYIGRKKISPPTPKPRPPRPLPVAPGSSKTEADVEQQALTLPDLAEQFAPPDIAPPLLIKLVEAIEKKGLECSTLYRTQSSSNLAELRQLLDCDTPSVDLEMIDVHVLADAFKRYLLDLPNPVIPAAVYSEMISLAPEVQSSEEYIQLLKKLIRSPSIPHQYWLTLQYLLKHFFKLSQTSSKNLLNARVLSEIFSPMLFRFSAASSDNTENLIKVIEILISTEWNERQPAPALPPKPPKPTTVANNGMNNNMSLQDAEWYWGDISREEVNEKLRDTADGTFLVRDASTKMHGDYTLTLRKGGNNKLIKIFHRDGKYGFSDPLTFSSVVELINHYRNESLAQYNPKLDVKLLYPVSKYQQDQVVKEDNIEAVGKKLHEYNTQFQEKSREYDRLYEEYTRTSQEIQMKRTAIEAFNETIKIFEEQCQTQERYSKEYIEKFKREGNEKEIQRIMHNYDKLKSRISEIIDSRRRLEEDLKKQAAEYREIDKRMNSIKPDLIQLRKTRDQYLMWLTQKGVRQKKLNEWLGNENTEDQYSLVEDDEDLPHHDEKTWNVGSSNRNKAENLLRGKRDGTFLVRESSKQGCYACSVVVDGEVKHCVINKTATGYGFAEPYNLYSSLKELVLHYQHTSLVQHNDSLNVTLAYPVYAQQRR

PI3K (p110β/p85α) = PI3K (p110β/p85α) (Homo sapiens, UniProt P42338); experiment: PI3Kβ ADP-Glo kinase assay; conditions: for IC50: read-out: PI3Kβ Enzyme activity IC50
Sequence of PI3K (p110β/p85α) (P42338 whole entry): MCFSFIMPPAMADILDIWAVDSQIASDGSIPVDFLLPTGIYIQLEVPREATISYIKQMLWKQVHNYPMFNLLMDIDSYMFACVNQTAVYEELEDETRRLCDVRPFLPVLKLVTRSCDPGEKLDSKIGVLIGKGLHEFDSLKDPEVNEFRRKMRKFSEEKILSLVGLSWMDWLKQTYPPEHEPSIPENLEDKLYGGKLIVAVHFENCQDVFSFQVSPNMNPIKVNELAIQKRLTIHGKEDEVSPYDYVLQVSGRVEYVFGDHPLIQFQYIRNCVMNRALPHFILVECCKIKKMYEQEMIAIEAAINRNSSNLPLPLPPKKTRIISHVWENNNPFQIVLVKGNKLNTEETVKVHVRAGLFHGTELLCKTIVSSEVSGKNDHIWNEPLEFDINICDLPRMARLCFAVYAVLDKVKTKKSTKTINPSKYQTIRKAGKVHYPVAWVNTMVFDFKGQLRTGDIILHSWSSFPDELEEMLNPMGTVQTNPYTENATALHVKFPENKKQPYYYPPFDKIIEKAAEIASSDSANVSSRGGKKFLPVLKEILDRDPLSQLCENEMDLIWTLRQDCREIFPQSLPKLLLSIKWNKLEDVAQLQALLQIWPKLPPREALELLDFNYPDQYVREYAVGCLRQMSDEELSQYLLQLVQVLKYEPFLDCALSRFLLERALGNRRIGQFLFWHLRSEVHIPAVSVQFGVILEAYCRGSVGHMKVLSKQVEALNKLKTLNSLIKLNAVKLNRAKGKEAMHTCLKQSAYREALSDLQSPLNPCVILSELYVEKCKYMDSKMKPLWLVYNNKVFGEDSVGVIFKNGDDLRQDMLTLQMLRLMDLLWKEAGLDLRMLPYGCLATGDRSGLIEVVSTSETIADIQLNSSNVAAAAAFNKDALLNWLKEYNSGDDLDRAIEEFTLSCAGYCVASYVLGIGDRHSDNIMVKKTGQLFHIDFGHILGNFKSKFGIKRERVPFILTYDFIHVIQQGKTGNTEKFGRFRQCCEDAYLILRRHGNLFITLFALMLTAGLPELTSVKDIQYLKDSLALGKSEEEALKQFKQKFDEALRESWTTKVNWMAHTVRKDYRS
Sequence of PI3K (p110β/p85α) (P27986 whole entry partner): as the sequence (P27986 whole entry partner) above

Sequence of recombinant PI3K (p110δ/p85α) (O00329 whole entry): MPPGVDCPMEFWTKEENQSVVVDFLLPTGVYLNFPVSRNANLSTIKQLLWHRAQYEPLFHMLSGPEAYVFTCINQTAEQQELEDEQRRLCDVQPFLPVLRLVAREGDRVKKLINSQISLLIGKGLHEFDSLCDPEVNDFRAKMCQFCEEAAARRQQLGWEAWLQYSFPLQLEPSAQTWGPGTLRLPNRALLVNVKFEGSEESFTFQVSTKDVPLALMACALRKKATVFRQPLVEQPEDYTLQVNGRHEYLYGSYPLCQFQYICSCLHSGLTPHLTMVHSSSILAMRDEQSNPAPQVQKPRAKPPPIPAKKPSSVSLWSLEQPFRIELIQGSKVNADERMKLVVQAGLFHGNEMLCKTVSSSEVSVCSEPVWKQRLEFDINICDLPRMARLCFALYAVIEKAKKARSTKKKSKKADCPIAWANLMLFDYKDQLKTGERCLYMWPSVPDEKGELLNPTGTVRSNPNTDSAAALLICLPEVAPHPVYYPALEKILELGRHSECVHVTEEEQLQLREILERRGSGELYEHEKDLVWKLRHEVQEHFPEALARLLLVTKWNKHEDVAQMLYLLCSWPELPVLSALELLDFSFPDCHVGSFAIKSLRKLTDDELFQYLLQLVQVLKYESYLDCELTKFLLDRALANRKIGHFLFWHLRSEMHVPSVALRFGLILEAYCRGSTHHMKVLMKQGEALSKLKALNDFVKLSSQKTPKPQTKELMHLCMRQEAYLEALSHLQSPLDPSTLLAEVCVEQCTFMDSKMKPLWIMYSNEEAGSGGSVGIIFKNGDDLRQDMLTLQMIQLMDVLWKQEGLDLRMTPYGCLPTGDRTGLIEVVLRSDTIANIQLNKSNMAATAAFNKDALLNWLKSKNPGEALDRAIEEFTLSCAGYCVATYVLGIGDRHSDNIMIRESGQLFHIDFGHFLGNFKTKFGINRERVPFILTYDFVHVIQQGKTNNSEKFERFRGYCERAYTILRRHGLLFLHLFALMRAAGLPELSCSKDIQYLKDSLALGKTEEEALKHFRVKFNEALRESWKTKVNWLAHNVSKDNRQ
Sequence of recombinant PI3K (p110δ/p85α) (P27986 whole entry partner): as the sequence (P27986 whole entry partner) above

Structure (SMILES) | IC50 [1] [nM] | other results
CC(C)Oc1c(C(C)c2nc(Cl)c3c(N)nccn23)cc(Cl)c(F)c1-c1ccc(C(=O)O)nc1 (single isomer, unassigned) [Compound 18B] | 26 | 
CC(C)Oc1c(C(C)c2nc(Cl)c3c(N)nccn23)cc(Cl)c(F)c1C1CNC(=O)C1 (single isomer, unassigned) [Compound 48A, 4-(3-(1-(8-amino-1-chloroimidazo[1,5-a]pyrazin-3-yl)ethyl)-5-chloro-6-fluoro-2-isopropoxyphenyl)pyrrolidin-2-one] | 0.4 | IC50 (PI3K (p110γ)): 800 nM; IC50 [2]: 4800 nM; IC50 (PI3K (p110β/p85α)): 440 nM
CC(C)Oc1c(C(C)c2nc(Cl)c3c(N)nccn23)cc(Cl)c(F)c1C1CNC(=O)C1 (single isomer, unassigned) [Compound 48C, 4-(3-(1-(8-amino-1-chloroimidazo[1,5-a]pyrazin-3-yl)ethyl)-5-chloro-6-fluoro-2-isopropoxyphenyl)pyrrolidin-2-one] | 160 | 
CC(C)Oc1c(C(C)c2nc(Cl)c3c(N)nccn23)cc(Cl)c(F)c1C1CNC(=O)C1 (single isomer, unassigned) [Compound 48D, 4-(3-(1-(8-amino-1-chloroimidazo[1,5-a]pyrazin-3-yl)ethyl)-5-chloro-6-fluoro-2-isopropoxyphenyl)pyrrolidin-2-one] | 6.8 | 
CCOc1c(C(C)c2nc(Cl)c3c(N)nccn23)cc(Cl)c(F)c1C1CCOCC1 (single isomer, unassigned) [Compound 49A, 1-chloro-3-(1-(5-chloro-2-ethoxy-4-fluoro-3-(tetrahydro-2H-pyran-4-yl)phenyl)ethyl)imidazo[1,5-a]pyrazin-8-amine] | 0.49 | IC50 (PI3K (p110γ)): 440 nM; IC50 [2]: 2100 nM; IC50 (PI3K (p110β/p85α)): 260 nM
CCOc1c(C(C)c2nc(Cl)c3c(N)nccn23)cc(Cl)c(F)c1C1CCOCC1 (single isomer, unassigned) [Compound 49B, 1-chloro-3-(1-(5-chloro-2-ethoxy-4-fluoro-3-(tetrahydro-2H-pyran-4-yl)phenyl)ethyl)imidazo[1,5-a]pyrazin-8-amine] | 26 | 
CCOc1c(C(C)c2nc(Cl)c3c(N)nccn23)cc(Cl)c(C)c1N1CCOCC1 (single isomer, unassigned) [Compound 51B, 1-chloro-3-(1-(5-chloro-2-ethoxy-4-methyl-3-morpholinophenyl)ethyl)imidazo[1,5-a]pyrazin-8-amine] | 320 | 
Cc1nc(C(C)c2cc(Cl)c(F)c(-c3ccc(C#N)nc3)c2OC(C)C)n2ccnc(N)c12 (single isomer, unassigned) [Compound 59B, 5-(3-(1-(8-amino-1-methylimidazo[1,5-a]pyrazin-3-yl)ethyl)-5-chloro-6-fluoro-2-isopropoxyphenyl)picolinonitrile] | 240 | 
COc1c(C(C)c2ncc3c(N)nccn23)cc(Cl)c(C)c1-c1cccnc1 (stereo not drawn) [Compound 1, 3-(1-(5-chloro-2-methoxy-4-methyl-3-(pyridin-3-yl)phenyl)ethyl)imidazo[1,5-a]pyrazine-8-amine] | 150 | inhibition at 0.5 µM (PI3K (p110γ)): -27%; inhibition at 0.5 µM (PI3K (p110β/p85α); read-out: PI3Kβ max inhibition (%) at 0.5 μM): 6%
COc1c(C(C)c2nc(Br)c3c(N)nccn23)cc(Cl)c(C)c1-c1cccnc1 (stereo not drawn) [Compound 2, 1-bromo-3-(1-(5-chloro-2-methoxy-4-methyl-3-(pyridin-3-yl)phenyl)ethyl)imidazo[1,5-a]pyrazin-8-amine] | 1.5 | inhibition at 0.5 µM (PI3K (p110γ)): 37%; IC50 [2]: 560 nM
COc1c(C(C)c2nc(-c3ccccc3)c3c(N)nccn23)cc(Cl)c(C)c1-c1cccnc1 (stereo not drawn) [Compound 3, 3-(1-(5-chloro-2-methoxy-4-methyl-3-(pyridin-3-yl)phenyl)ethyl)-1-phenylimidazo[1,5-a]pyrazin-8-amine] | 150 | 
COc1c(C(C)c2nc(-c3cccc(O)c3)c3c(N)nccn23)cc(Cl)c(C)c1-c1cccnc1 (stereo not drawn) [Compound 4, 3-(8-amino-3-(1-(5-chloro-2-methoxy-4-methyl-3-(pyridin-3-yl)phenyl)ethyl)imidazo[1,5-a]pyrazin-1-yl)phenol] | 7.5 | inhibition at 0.5 µM (PI3K (p110γ)): 9%; inhibition at 0.5 µM [2]: 20%
COc1c(C(C)c2nc(Br)c3c(N)ncc(Cl)n23)cc(Cl)c(C)c1-c1cccnc1 (stereo not drawn) [Compound 5, 1-bromo-5-chloro-3-(1-(5-chloro-2-methoxy-4-methyl-3-(pyridin-3-yl)phenyl)ethyl) imidazo[1,5-a]pyrazin-8-amine] | 18 | inhibition at 0.5 µM (PI3K (p110γ)): 44%; inhibition at 0.5 µM [2]: 19%
COc1c(C(C)c2nc(Cl)c3c(N)nccn23)cc(Cl)c(C)c1-c1cccnc1 (stereo not drawn) [Compound 6, 1-chloro-3-(1-(5-chloro-2-methoxy-4-methyl-3-(pyridin-3-yl)phenyl)ethyl)imidazo[1,5-a]pyrazin-8-amine] | 2 | inhibition at 0.5 µM (PI3K (p110γ)): 52%; inhibition at 0.5 µM [2]: 34%
CCOc1c(C(C)c2nc(Br)c3c(N)nccn23)cc(Cl)c(C)c1-c1ccc(C)nc1 (stereo not drawn) [Compound 7, 1-bromo-3-(1-(5-chloro-2-ethoxy-4-methyl-3-(6-methylpyridin-3-yl)phenyl)ethyl) imidazo[1,5-a]pyrazin-8-amine] | 1.9 | IC50 (PI3K (p110γ)): 200 nM; IC50 [2]: 420 nM
CCOc1c([C@@H](C)c2nc(Cl)c3c(N)nccn23)cc(Cl)c(C)c1-c1ccc(C)nc1 [Compound 8B] | 170 | 

Structure (SMILES) | IC50 [1] [nM] | other results
CCOc1c(C(C)c2nc(Br)c3c(N)nccn23)cc(Cl)c(C)c1-c1ccc(Cl)cc1 (stereo not drawn) [Compound 9, 1-bromo-3-(1-(4′,5-dichloro-2-ethoxy-6-methyl-[1,1′-biphenyl]-3-yl)ethyl)imidazo[1,5-a]pyrazin-8-amine] | 100 | 
CC(C)Oc1c([C@@H](C)c2nc(Cl)c3c(N)nccn23)cc(Cl)c(F)c1-c1ccc(C(=O)N(C)C)nc1 [Compound 16B] | 62 | 
CC(C)Oc1c([C@@H](C)c2nc(Cl)c3c(N)nccn23)cc(Cl)c(F)c1-c1ccc(C(N)=O)nc1 [Compound 17A] | 91 | 
COc1c(C(C)c2nc(Br)c3c(N)nccn23)cc(Cl)c(C)c1-c1c(C)noc1C (stereo not drawn) [Compound 21, 1-bromo-3-(1-(5-chloro-3-(3,5-dimethylisoxazol-4-yl)-2-methoxy-4-methylphenyl)ethyl)imidazo[1,5-a]pyrazin-8-amine] | 3.3 | IC50 (PI3K (p110γ)): 1500 nM; IC50 [2]: 2000 nM
CCOc1c([C@@H](C)c2nc(Cl)c3c(N)nccn23)cc(Cl)c(C)c1-c1ccc(Cl)nc1 [Compound 27B] | 500 | 
CCOc1c(C(C)c2nc(C)c3c(N)nccn23)cc(F)c(Cl)c1-c1ccc(C(F)(F)F)nc1 (stereo not drawn) [Compound 34, 3-(1-(4-chloro-2-ethoxy-5-fluoro-3-(6-(trifluoromethyl)pyridin-3-yl)phenyl)ethyl)-1-methylimidazo[1,5-a]pyrazin-8-amine] | 43 | 
Cc1c(Cl)cc([C@@H](C)c2nc(Br)c3c(N)nccn23)c(OC(C)C)c1-c1ccc(C(F)(F)F)nc1 [Compound 38B] | 2100 | 
CC(C)Oc1c([C@@H](C)c2nc(Cl)c3c(N)nccn23)cc(Cl)c(F)c1-c1ccc(C(F)(F)F)nc1 [Compound 40B] | 150 | 
CCOc1c([C@@H](C)c2nc(Cl)c3c(N)nccn23)cc(Cl)c(F)c1-c1ccc(C(F)(F)F)nc1 [Compound 41B] | 350 | 
CCCOc1c([C@@H](C)c2nc(Cl)c3c(N)nccn23)cc(Cl)c(F)c1-c1ccc(C(F)(F)F)nc1 [Compound 42B] | 330 | 
CCOc1c([C@@H](C)c2nc(Cl)c3c(N)nccn23)cc(Cl)c(F)c1-c1ccc(C(F)(F)F)nc1OC [Compound 43B] | > 1000 | 
CCOc1c(C(C)c2nc(-c3ccc(OC)cc3)c3c(N)nccn23)cc(Cl)c(C)c1-c1ccc(OC)cc1 (stereo not drawn) [Compound 44, 3-(1-(5-chloro-2-ethoxy-4′-methoxy-6-methyl-[151′-biphenyl]-3-yl)ethyl)-1-(4-methoxyphenyl)imidazo[1,5-a]pyrazin-8-amine] | 380 | 
CCOc1c(C(C)c2nc(Cl)c3c(N)nccn23)cc(Cl)c(F)c1C1CCOCC1 (stereo not drawn) [Compound 49, 1-chloro-3-(1-(5-chloro-2-ethoxy-4-fluoro-3-(tetrahydro-2H-pyran-4-yl)phenyl)ethyl)imidazo[1,5-a]pyrazin-8-anine] | 3.1 | 
COc1c(C(C)c2nc(C)c3c(N)nccn23)cc(Cl)c(C)c1-c1cccnc1 (stereo not drawn) [Compound 52, 3-(1-(5-chloro-2-methoxy-4-methyl-3-(pyridin-3-yl)phenyl)ethyl)-1-methyl imidazo[1,5-a]pyrazin-8-amine] | 7.7 | inhibition at 0.5 µM (PI3K (p110γ)): -11%; inhibition at 0.5 µM [2]: 6%
COc1c(C(C)c2nc(C3CC3)c3c(N)nccn23)cc(Cl)c(C)c1-c1cccnc1 (stereo not drawn) [Compound 53, 3-(1(5-chloro-2-methoxy-4-methyl-3-(pyridin-3-yl)phenyl)ethyl)-1-cyclopropyl imidazo[1,5-a]pyrazin-8-amine] | 1900 | 
Cc1nn(C(C)c2cc(Cl)c(C#N)c(=O)n2-c2ccccc2)c2ncnc(N)c12 (stereo not drawn) [Compound 55, 6-(1-(4-amino-3-methyl-1H-pyrazolo[3,4-d]pyrimidin-1-yl)ethyl)-4-chloro-2-oxo-1-phenyl-1,2-dihydropyridine-3-carbonitrile] | 450 | 
